Results taken from patent US20220202895A1, “PULSATIVE GNRH ADMINISTRATION FOR TREATING COGNITIVE DISORDERS” (INSERM (Institut National de la Santé et de la Recherche …, priority 2019, published 2022).
Entries after “also recorded” stand apart in the source; their conditions may differ.

How the values were obtained:
[1] = system: GnRH-R expressing neurons of Gnrhr::Cre mice injected with hM4D(Gi) DREADD viral vector; conditions: mouse, in vivo, 3 mg/kg
[2] = system: GnRH-R expressing neurons of Gnrhr::Cre mice injected with hM4D(Gi) DREADD viral vector; conditions: mouse, in vivo, 3 mg/kg; remark: listed apart in the source
wild-type mice [3] = conditions: mouse, in vivo
Description: Novel object recognition test. Recognition memory was assessed using the novel object recognition test (Leger et al., 2013). Mice were single-housed for 5 days prior to testing. On day 1, two identical objects (A+A) were placed within the open-field arena on opposite sides of the cage, equidistant from the cage walls. Each mouse was placed within the two objects and allowed to explore them for 15 min. Day 2 consisted of two phases, a familiarization and a test phase. During the familiarization phase (trial 1) that lasted 15 min, mice explored two other identical objects (B+B). After this phase, mice were placed back in its home cage for 1 hour before starting the test phase. During the test phase, one object from trial 1 and a completely new object (B+C) were placed within the open-field area and mice were allowed to explore them for 5 min (trial 2). The object recognition score was calculated as the time spent exploring the new object (trial 2) over the total exploration time, and is used to represent recognition memory function. […]

wild-type mice [4] = conditions: mouse, in vivo; remark: listed apart in the source
Description: Habituation/dishabituation test. The habituation/dishabituation test was used to assess the ability to differentiate between different odours (Breton-Provencher et al., 2009). Mice were single-housed for 8 days prior to testing. This olfactory test included a presentation of acetophenone (00790, Sigma) for habituation and octantal (05608, Sigma) for dishabituation, or vice versa. Before the test, mice were allowed to explore the open-field area and an empty odour box for 30 min. After this habituation period, mice were sequentially presented with one odour for four consecutive trials for a duration of 1 min, and an inter-trial interval of 10 min was maintained to ensure the replacement of the odour. After four consecutive trials, a second odour was presented during a 1 min trial. Odours (20 μl of 1:1000 dilution) were administered on a filter paper and placed in a perforated plastic box to avoid direct contact with the odour stimulus. The measurement consisted of recording the total amount of time the mouse spent sniffing the object during different trials.

wild-type mice [5] = experiment: LH pulsatility by serial tail blood sampling and LH ELISA; assay type: in vivo, mouse; conditions: continuous subcutaneous infusion by osmotic pump, 15 days
Description: LH assays: LH levels were determined by the previously described sensitive LH sandwich ELISA (Steyn et al., 2013). A 96-well high-affinity binding microplate (Corning) was coated with 50 μL of capture antibody (monoclonal antibody, anti-bovine LHβ subunit, 518B7; L. Sibley; University of California, UC Davis) at a final dilution of 1:1,000 (in 0.1M Na2CO3/NaHCO3, pH 9.6) and incubated overnight at 4° C. Wells were incubated with 200 μL blocking buffer (5% (w/v) skimmed milk powder in 1×PBS-T pH 7.4 (0.1 M PBS, 0.05% Tween 20 (Sigma #P9416)) for 2 hours at room temperature (RT). A standard curve was generated using a twofold serial dilution of mouse LH (reference preparation, AFP-5306A; National Institute of Diabetes and Digestive and Kidney Diseases National Hormone and Pituitary Program (NIDDK-NHPP)) in 1% (w/v) BSA (Sigma, A9418) in 1×PBS-T. The LH standards and blood samples were incubated with 50 μL of detection antibody (rabbit LH antiserum, AFP240580Rb; NIDDK-NHPP) at a final dilution of 1:10,000 for 1.5 hours at RT. […] The reaction was stopped by the addition of 50 μL of 3M HCl to each well, and the absorbance was measured at 450 nm.
Adult mice were habituated with daily handling. […] LH levels were then determined using the protocol described before. […]

Compound: C[N+]1([O-])CCN(C2=Nc3cc(Cl)ccc3Nc3ccccc32)CC1 [CNO, clozapine-n-oxide]
- olfactory performance (ability to discriminate between different odors) [1]: dramatically reduced; also recorded: impaired
- cognitive performance [2]: dramatically reduced; also recorded: impaired

Compound: LUTRELEF®: a GnRH peptide of clinic use to restore fertility in patients with hypogonadotropic hypogonadism; GnRH acetate/diacetate (gonadorelin), Ferring Pharmaceuticals
- cognitive performance (wild-type mice [3]): marked deleterious effects
- olfactory performance (wild-type mice [4]): marked deleterious effects
- LH pulsatility (pulse frequency and amplitude) (wild-type mice [5]): prevented; also recorded: blunted LH pulsatility
